# Measured values reported in patent publication US20190159450A1, “PYRIDINE-BASED COMPOUND INCLUDING ISOXAZOLINE RING AND USE THEREOF AS HERBICIDE” (MOGHU RESEARCH CENTER LTD., priority 2016, published 2019).
# What was measured:
# Format in all cases: in vivo
# [1] = test system: Aeschynomene indica; assay: Herbicidal activity test, post-weeds emergence treatment; conditions: assessed after 2 to 3 weeks, 0: no effect, 10: complete death
# Protocol: (§1) A rectangular plastic pot with a surface area of 300 cm^2 was filled with sandy loam soil and mixed soil at a ratio of 1:1, and four kinds of weeds including Quamoclit pennata, Abutilon theophrasti Medicus, and Aeschynomene indica, Xanthium strumarium were sown therein. In another pot made in the same way, three kinds of crop seeds including maize, wheat, and rice were sown. The pots were watered and one day later, a medicament was sprayed thereon. The spraying was performed by using a track sprayer (R&D Sprayer, USA) equipped with Teejet 8002EVS (Spraying Systems Co., USA) nozzle, and the spray amount was controlled to be 1000 L/ha. A spray solution was prepared by dissolving the compound of each example or a control material in acetone, and then, adding the same amount of 0.1% (v/v) tween 20 aqueous solution thereto. The spray amount was 200 g/ha. The pots were placed in a greenhouse in which the temperature was maintained at 25° C. to 30° C. during the day and 15° C. to 25° C. during the night, and was regularly watered. After 2 to 3 weeks from the spraying of the compounds or the control material, the efficacy and the damages on each weed and each crop were assessed according to the scale of 0-10 (0: no effect, 10: complete death) scale and the results are shown in Table 3 below.
# (§2) Pots for crops and weeds were prepared in the same manner as in Experimental Example 1, and then, when the crops and the weeds were raised up to 2 weeks roughly on a third-leaf stage, the compounds and the control material were sprayed thereon in the same manner as described above. The spray amount was 200 g/ha. After 2 to 3 weeks from the spraying of the test substance or the control substance, the efficacy and the damages on each weed and each crop were assessed according to the scale of 0-10 (0: no effect, 10: complete death) scale.
# (§3) Pots for crops and weeds were prepared in the same manner as the test method illustrated in Table 5, and four kinds of weeds selected from Quamoclit pennata, Abutilon theophrasti Medicus, and Aeschynomene indica, Xanthium strumarium were used. The spray amount was 200 g/ha for crops and 50 g/ha for weeds.
# [2] = test system: Abutilon theophrasti Medicus; assay: as above; conditions: assessed after 2 to 3 weeks, 0: no effect, 10: complete death
# Protocol: as §1, §2, §3
# [3] = test system: Xanthium strumarium; assay: as above; conditions: assessed after 2 to 3 weeks, 0: no effect, 10: complete death
# Protocol: as §1, §2, §3
# [4] = test system: Quamoclit pennata; assay: as above; conditions: assessed after 2 to 3 weeks, 0: no effect, 10: complete death
# Protocol: as §1, §2, §3
# [5] = test system: wheat; assay: Herbicidal activity test, pre-weeds emergence treatment (crop damage); conditions: assessed 2 to 3 weeks after spraying, scale 0-10 (0: no effect, 10: complete death)
# Protocol: as §1
# (§4) Pots for crops and weeds were prepared in the same manner as the test method illustrated in Table 3, and three kinds of weeds selected from Quamoclit pennata, Abutilon theophrasti Medicus, and Aeschynomene indica, Xanthium strumarium were used.
# [6] = test system: rice; assay: as above; conditions: assessed 2 to 3 weeks after spraying, scale 0-10 (0: no effect, 10: complete death)
# Protocol: as §1, §4
# [7] = test system: maize; assay: as above; conditions: assessed 2 to 3 weeks after spraying, scale 0-10 (0: no effect, 10: complete death)
# Protocol: as §1, §4
# [8] = test system: Aeschynomene indica; assay: Herbicidal activity test, pre-weeds emergence treatment; conditions: assessed 2 to 3 weeks after spraying, scale 0-10 (0: no effect, 10: complete death)
# Protocol: as §1, §4
# [9] = test system: Abutilon theophrasti Medicus; assay: as above; conditions: assessed 2 to 3 weeks after spraying, scale 0-10 (0: no effect, 10: complete death)
# Protocol: as §1, §4
# [10] = test system: Xanthium strumarium; assay: as above; conditions: assessed 2 to 3 weeks after spraying, scale 0-10 (0: no effect, 10: complete death)
# Protocol: as §1, §4
# [11] = test system: Quamoclit pennata; assay: as above; conditions: assessed 2 to 3 weeks after spraying, scale 0-10 (0: no effect, 10: complete death)
# Protocol: as §1, §4
# [12] = test system: wheat; assay: Herbicidal activity test, post-weeds emergence treatment (crop damage); conditions: assessed after 2 to 3 weeks, 0: no effect, 10: complete death
# Protocol: as §1, §2, §3
# [13] = test system: rice; assay: as above; conditions: assessed after 2 to 3 weeks, 0: no effect, 10: complete death
# Protocol: as §1, §2, §3
# [14] = test system: maize; assay: as above; conditions: assessed after 2 to 3 weeks, 0: no effect, 10: complete death
# Protocol: as §1, §2, §3
# [15] = spray amount 50 g/ha for weeds, Table 6
# [16] = spray amount 200 g/ha for crops, Table 6
Structure (SMILES),"AESIN (Aeschynomene indica) herbicidal efficacy, scale of 0-10 ([1]; spray amount 200 g/ha, Table 5)","ABUTH (Abutilon theophrasti Medicus) herbicidal efficacy, scale of 0-10 ([2]; spray amount 200 g/ha, Table 5)","XANST (Xanthium strumarium) herbicidal efficacy, scale of 0-10 ([3]; spray amount 200 g/ha, Table 5)","IPOAN (Quamoclit pennata) herbicidal efficacy, scale of 0-10 ([4]; spray amount 200 g/ha, Table 5)","PRE TRZAW (wheat), damage score ([5]; Table 3, 200 g/ha)","PRE ORYSA (rice), damage score ([6]; Table 3, 200 g/ha)","PRE ZEAMX (maize), damage score ([7]; Table 3, 200 g/ha)","PRE AESIN (Aeschynomene indica), efficacy score ([8]; Table 3, 200 g/ha)","PRE ABUTH (Abutilon theophrasti Medicus), efficacy score ([9]; Table 3, 200 g/ha)","PRE XANST (Xanthium strumarium), efficacy score ([10]; Table 3, 200 g/ha)","PRE IPOAN (Quamoclit pennata), efficacy score ([11]; Table 3, 200 g/ha)","TRZAW (wheat) damage, scale of 0-10 ([12]; spray amount 200 g/ha, Table 5)","ORYSA (rice) damage, scale of 0-10 ([13]; spray amount 200 g/ha, Table 5)","ZEAMX (maize) damage, scale of 0-10 ([14]; spray amount 200 g/ha, Table 5)","AESIN (Aeschynomene indica) herbicidal efficacy, scale of 0-10 [1, 15]","ABUTH (Abutilon theophrasti Medicus) herbicidal efficacy, scale of 0-10 [2, 15]","XANST (Xanthium strumarium) herbicidal efficacy, scale of 0-10 [3, 15]","IPOAN (Quamoclit pennata) herbicidal efficacy, scale of 0-10 [4, 15]","PRE TRZAW (wheat), damage score ([5]; Table 4, 200 g/ha)","PRE ORYSA (rice), damage score ([6]; Table 4, 200 g/ha)",further results
"COC(=O)c1nc(C2CC(Cl)=NO2)cc(NC(C)=O)c1Cl (stereo not drawn) [Compound 1, methyl 4-acetamido-3-chloro-6-(3-chloro-4,5-dihydroisoxazol-5-yl)picolinate]",10,8,10,8,1,0,0,10,8,9,9,1,1,0,,,,,,,
"COC(=O)c1nc(C2CC(Br)=NO2)cc(NC(C)=O)c1Cl (stereo not drawn) [Compound 3, methyl 4-acetamido-3-chloro-6-(3-bromo-4,5-dihydroisoxazol-5-yl)picolinate]",10,3,10,6,0,0,0,10,10,8,8,0,0,0,,,,,,,
"COC(=O)c1nc(C2CC(C(F)(F)F)=NO2)cc(NC(C)=O)c1Cl (stereo not drawn) [Compound 4, methyl 4-acetamido-3-chloro-6-(3-(trifluoromethyl)-4,5-dihydroisoxazol-5-yl)picolinate]",10,3,8,3,0,0,0,8,6,6,7,0,0,0,,,,,,,
"COC(=O)c1nc(C2CC(Br)=NO2)cc(N)c1Cl (stereo not drawn) [Compound 33, methyl 4-amino-3-chloro-6-(3-bromo-4,5-dihydroisoxazol-5-yl)picolinate]",,,,,,,,,,,,,,,9,7,10,5,0,0,"PRE ZEAMX (maize), damage score ([7]; Table 4, 200 g/ha): 2; PRE AESIN (Aeschynomene indica), efficacy score ([8]; Table 4, 200 g/ha): 10; PRE ABUTH (Abutilon theophrasti Medicus), efficacy score ([9]; Table 4, 200 g/ha): 6; PRE XANST (Xanthium strumarium), efficacy score ([10]; Table 4, 200 g/ha): 10; PRE IPOAN (Quamoclit pennata), efficacy score ([11]; Table 4, 200 g/ha): 6; TRZAW (wheat) damage, scale of 0-10 [12, 16]: 0; ORYSA (rice) damage, scale of 0-10 [13, 16]: 0; ZEAMX (maize) damage, scale of 0-10 [14, 16]: 0"
"Nc1cc(C2CC(Br)=NO2)nc(C(=O)O)c1Cl (stereo not drawn) [Compound 34, 4-amino-3-chloro-6-(3-bromo-4,5-dihydroisoxazol-5-yl)picolinic acid]",,,,,,,,,,,,,,,10,6,10,3,0,0,"PRE ZEAMX (maize), damage score ([7]; Table 4, 200 g/ha): 0; PRE AESIN (Aeschynomene indica), efficacy score ([8]; Table 4, 200 g/ha): 10; PRE ABUTH (Abutilon theophrasti Medicus), efficacy score ([9]; Table 4, 200 g/ha): 9; PRE XANST (Xanthium strumarium), efficacy score ([10]; Table 4, 200 g/ha): 10; PRE IPOAN (Quamoclit pennata), efficacy score ([11]; Table 4, 200 g/ha): 10; TRZAW (wheat) damage, scale of 0-10 [12, 16]: 0; ORYSA (rice) damage, scale of 0-10 [13, 16]: 2; ZEAMX (maize) damage, scale of 0-10 [14, 16]: 0"
"COC(=O)c1nc(C2CC(Cl)=NO2)cc(N)c1Cl (stereo not drawn) [Compound 37, methyl 4-amino-3-chloro-6-(3-chloro-4,5-dihydroisoxazol-5-yl)picolinate]",10,10,10,8,0,0,0,10,10,10,10,1,1,0,10,10,10,8,0,1,"PRE ZEAMX (maize), damage score ([7]; Table 4, 200 g/ha): 0; PRE AESIN (Aeschynomene indica), efficacy score ([8]; Table 4, 200 g/ha): 10; PRE ABUTH (Abutilon theophrasti Medicus), efficacy score ([9]; Table 4, 200 g/ha): 10; PRE XANST (Xanthium strumarium), efficacy score ([10]; Table 4, 200 g/ha): 10; PRE IPOAN (Quamoclit pennata), efficacy score ([11]; Table 4, 200 g/ha): 7; TRZAW (wheat) damage, scale of 0-10 [12, 16]: 0; ORYSA (rice) damage, scale of 0-10 [13, 16]: 0; ZEAMX (maize) damage, scale of 0-10 [14, 16]: 0"
"Nc1cc(C2CC(Cl)=NO2)nc(C(=O)O)c1Cl (stereo not drawn) [Compound 38, 4-amino-3-chloro-6-(3-chloro-4,5-dihydroisoxazol-5-yl)picolinic acid]",10,10,10,9,2,7,0,10,10,10,10,0,3,1,,,,,,,
"COC(=O)c1nc(C2CC(C(F)(F)F)=NO2)cc(N)c1Cl (stereo not drawn) [Compound 39, methyl 4-amino-3-chloro-6-(3-trifluoromethyl-4,5-dihydroisoxazol-5-yl)picolinate]",10,3,10,4,0,1,0,8,4,6,6,0,0,0,,,,,,,
